According to EP0688331B1, “NEW SULFATED LYSO-GANGLIOSIDE DERIVATIVES” (FIDIA S.p.A., priority 1993, dated 1994):
Like-named read-outs stand apart in the source and are kept apart here.

Key:
[1] = system: cerebellar granule cells; settings: read-out: ED50 (antineurotoxic activity); 2 hrs pretreatment, then 100 µM glutamate 60 minutes; MTT after 24 hr
Description: Primary cultures of cerebellar granule cells have been prepared from 8-day-old Sprague-Dawley rats.
Neurons have been grown in 35 mm dishes for 11-13 days and kept in a humidified environment (95% air and 5% CO2) at 37° C. […] Glial proliferation was prevented by cytosine arabinofuranoside.
Concentrations from 100 µM to 5 µM have been tested.
The cell culture medium was aspirated from the dishes (and properly stored). The dishes were washed (3x2 ml) with Locke's solution, then the solutions (1.5 ml) containing the compound to be tested were added, and incubated for 2 hrs in incubator at 37° C (5% CO2).
The treated cells were washed (3x2 ml) with Locke's solution + 10% fetal calf serum heat inactivated (without glutamic acid), then washed (3x2 ml) in Locke's solution in the absence of Mg^2+. […]
At the end of the incubation the cell viability measured by using the MTT colorimetric test was evaluated (Mosmann T., Rapid colorimetric assay for cellular growth and survival: application to proliferation and cytotoxicity assays. J. Immunol. Meth. 65, 55-63, 1983 and modified according to Skaper S.D. et al.: Death of cultured hippocampal pyramidal neurons induced by pathological activation of N-methyl-Daspartate receptors is reduced by monosialogangliosides. J. Pharm. and Exp. Ther. 259, 1, 452-457, 1991). The data are expressed as ED50 (µM).

[2] = system: Mouse neuroblastoma cells C1300, Neuro-2A clone; experiment: Neuritogenic activity (% of neurite-bearing cells under the optical microscope); type: cell-based; settings: for EC50: neuroblastoma cells N2A, % of neurite-bearing cells, read-out: ED50 (µM) neuritogenic effect
Description: Mouse neuroblastoma cells C1300, Neuro-2A clone (obtained from American Cell Type Culture Collection - Bethesda, Md) have been seeded at a density of 10,000 cells/well (24-Falcon) in tissue culture medium containing Dulbecco's modified Eagle medium (DMEM, Gibco), 10% fetal calf serum heat inactivated (FCS, lot 7201 Seromed), penicillin (100 units per ml, Irvine) and L-glutamine (2 mM, Sigma). Cells have been incubated at 37° C for 24 hr, then the medium was withdrawn and substituted with 350 µl of fresh culture medium with and without the compounds to be tested.
The derivatives have been solubilized in chloroform/methanol (2/1) and then dried under a flow of nitrogen.
For the different compounds, consecutive dilutions in tissue culture medium (concentrations from 50 µM to 5 µM) were performed.
Culture dishes incubated with the tested compounds were analyzed under a phase contrast microscope (250x) : 9 optical fields were chosen with prefixed coordinates and photographed. Then, the total number of cells were counted, as well as the number of neurite-bearing cells (length at least double of the cell diameter) in blind on every picture. The percentage of neurite-bearing cells was determined following the counting of at least 100 cells, and the data were expressed by the respective ED50 (µM) (Facci L. et al.: Promotion of neuritogenesis in mouse neuroblastoma cells by exogenous ganglioside GM1. J. Neurochem. 229-305, 1984).

[3] = molecular target: T1, CD4 (Homo sapiens, UniProt P01730); experiment: Expression of the CD4 molecule in Molt 3 cells (flow cytofluorimetry with anti-CD4 mAb); type: cell-based; settings: 60 minutes at 37° C
T1 construct: 100% of Molt 3 cells express CD4; host or cells: Molt 3 cells (human acute lymphoblastic leukemia T-cell line)
From the text: Molt 3 cells (American Type Culture Collection - Rockville, MD, USA) have been utilized, human tumoral cell lines derived from an acute lymphoblastic leukemia and formed by T lymphocytes expressing CD4 on their surface. Such a cell line was chosen due to the fact that it overlaps, as regards the expression of the CD4 molecule, human T lymphocytes obtained from peripheral blood. 100% of Molt 3 cells express CD4, whereas only part of human T lymphocytes from peripheral blood express CD4 in a proportion varying from subject to subject. The Molt 3 model has therefore the advantage of allowing a better experimental reliability.
Molt 3 cells (1x10^6) have been incubated with different concentrations of Liga 179 (from 1 µg/ml to 500 µg/ml) for 60 minutes at 37° C in buffered saline (PBS), with or without Fetal Calf Serum (FCS). When utilized, FCS was added at a concentration of 5 or 10 part/percentage (vol/vol). Following the incubation and the subsequent washing the percentage of cells expressing CD4 has been measured by flow cytofluorimetry using a monoclonal, fluoresceinated (mAb), specific for CD4 (DAKO T4, Dakopatts, Glostrup, Denmark) and a cytofluorimeter (EPICS V, Coulter Electronics, Hialeah, Florida, USA). In Table 4 are reported the data concerning the percentage of Molt 3 cells that express CD4, following the incubation with the compound under examination at the different concentrations utilized.

[4] = system: cerebellar granule cells; settings: read-out: ED50 (antineurotoxic activity); co-treatment with 100 µM glutamate, 30 minutes; MTT after 24 hours
Description: Thus, dilutions have been performed at different concentrations in Locke's solution (154 mM NaCl, 5.6 mM KCl, 3.6 mM NaHCO3, 2.3 mM CaCl2, 5.6 mM glucose, 4.6 mM Hepes, pH 7.4). Concentrations from 100 µM to 5 µM have been tested.
The cell culture medium was aspirated from the dishes (and properly stored). The dishes were washed (3x2 ml) with Locke's solution in the absence of Mg^2+. Then, 1.5 ml of Locke's solution (-Mg^2+) with or without 100 µM glutamate and with or without the compound to be tested were added. The incubation period lasted 30 minutes (37° C). Glutamate and the compound to be tested were then removed. The dishes were washed with Locke's solution in the presence of Mg^2+ (2x2 ml) and then incubated in the presence of the initial medium (properly stored) for 24 hours at 37° C in an incubator (5% CO2).
At the end of the incubation cell viability measured by means of the MTT colorimetric test was evaluated (Mosmann T.: Rapid colorimetric assay for cellular growth and survival: application to proliferation and cytotoxicity assays. J Immunol. Meth. 65, 55-63, 1983 and modified according to Skaper S.D. et al.: Death of cultured hippocampal pyramidal neurons induced by pathological activation of N-methyl-D-aspartate receptors is reduced by monosialogangliosides. J. Pharm. and Exp. Ther. 259,1, 452-457, 1991). Data were expressed as ED50 (µM).

Row | EC50 [2] [µM] | % MOLT-3 cells expressing CD4 on the surface ([3]; 10 µg/ml, FCS 0 %, without compound 96.9) [%] | % MOLT-3 cells expressing CD4 on the surface ([3]; 50 µg/ml, FCS 0 %, without compound 96.9) [%] | % MOLT-3 cells expressing CD4 on the surface ([3]; 100 µg/ml, FCS 0 %, without compound 96.9) [%] | % MOLT-3 cells expressing CD4 on the surface ([3]; 100 µg/ml, FCS 5 %, without compound 98.6) [%] | % MOLT-3 cells expressing CD4 on the surface ([3]; 100 µg/ml, FCS 10 %, without compound 96.9) [%] | % MOLT-3 cells expressing CD4 on the surface ([3]; 200 µg/ml, FCS 5 %, without compound 98.6) [%] | % MOLT-3 cells expressing CD4 on the surface ([3]; 200 µg/ml, FCS 10 %, without compound 96.9) [%] | % MOLT-3 cells expressing CD4 on the surface ([3]; 500 µg/ml, FCS 5 %, without compound 98.6) [%] | % MOLT-3 cells expressing CD4 on the surface ([3]; 500 µg/ml, FCS 10 %, without compound 96.9) [%] | Substance | EC50 [1] [µM] | % of neurite-bearing cells ([2]; dose of 25 µM) | EC50 [4] [µM]
1 | 12 |  |  |  |  |  |  |  |  |  | N-4-CHLOROBENZENESULFONYL-LYSOGM1 [Liga 123] | 6 | about 48% | 
2 | 25 |  |  |  |  |  |  |  |  |  | N-BENZENESULFONYL-LYSO GM1 [Liga 125] |  |  | 
3 |  | 0 | 0 | 0 | 15.5 | 86.5 | 0 | 14.6 | 0 | 0 | O-SULFATED N'SULFO-N'-LYSO-GM1 [Liga 179] |  |  | 15
